“Also recorded” adds a separate entry of the source.
What was measured:
Cornu aspersum FaNaC = system: Cornu aspersum FaNaC; parameters: method as in PMID 7501021; settings: cited from earlier work
Planorbella FaNaC = system: Planorbella FaNaC; parameters: method as in PMID 10878095; settings: cited from earlier work
[1] = system: Biomphalaria glabrata FMRF-NH2 gated sodium channel (Bgl-FaNaC); assay: Two-electrode voltage clamp of Bgl-FaNaC heterologously expressed in Xenopus oocytes; assay type: cell-based; settings: peptide 1 mM (given for FLRF-NH2, pQFYRI-NH2, FIRF-NH2; not given for GDPFLRF-NH2); oocyte voltage clamp -60 mV
Protocol: The cDNA encoding the Bgl-FaNaC sequence was codon-optimized for Xenopus laevis and synthesized by Integrated DNA Technologies (IDT, Coralville IA). The Flag-tag protein affinity sequence (DYKDDDDK; Sigma-Aldrich) was added to the N-terminal to enable confirmation of expression. The cDNA was subcloned into the Xenopus expression vector pGEM HE as described previously. The Bgl-FaNaC full-length RNA was transcribed in vitro, capped and polyadenylated using the T7 mScript Standard mRNA Production System (CellScript, Madison WI).
Oocytes were obtained from dissected ovaries of adult Xenopus laevis specimens (Xenopus Express, Brooksville FL). They were dispersed with type II collagenase and manually defolliculated. RNA injections were performed in pre-selected oocytes from stages V and VI. Oocytes were injected with 38.6 nL of Bgl-FaNaC encoding RNA at a concentration of 20 ng/uL using a Nanoliter 2000 microinjector (World Precision Instruments, Sarasota FL).
Injected oocytes were placed at the bottom of a plastic recording chamber (3 ml volume) lined with a nylon mesh and continuously perfused with ND96 (96 mM NaCl, 2 mM KCl, 1.8 mM CaCl2, 1 mM MgCl2, 5 mM HEPES, pH 7.6; see detailed methods in [38]). An OC725B oocyte clamp (Warner Instruments LLC., Hamden CT) was used to clamp the membrane potential at -60 mV with independent microelectrodes for recording (0.1 M potassium chloride) and passing current (3 M potassium chloride). Data were acquired on a Digidata 1200 interface with Clampex (V.6) and analyzed with AxoScope 10.7 (Axon Instruments, Union City CA). All experiments were carried out at room temperature (20–25°C).
Synthetic FMRF-NH2, FLRF-NH2, FIRF-NH2, pQFYRI-NH2, and GDPFLRF-NH2 peptides (>90% purity) were purchased from GL Biochem (Shanghai, China). All peptides were dissolved in ND96 in a stock of 1 mM. Peptide stocks were frozen at -20°C and serial dilutions were freshly prepared before each experiment. Peptides were applied manually using a pipettor (1 mL, upstream from the oocyte).

| Compound | Current response to related peptide application [1] | also measured |
| --- | --- | --- |
| N=C(N)NC(=O)c1nc(Cl)c(N)nc1N [amiloride] | – | Effect of amiloride on FaNaC (Cornu aspersum FaNaC; FaNaC of Cornu aspersa): blocks; Effect of amiloride on FaNaC responses to FMRF-NH2 (Planorbella FaNaC): potentiates responses to FMRF-NH2 |
| pQFYRI-NH2 [Synthetic peptide encoded on the tetrapeptide precursor Bgl-FaRP1] | No currents | – |
| FIRF-NH2 [Synthetic peptide encoded on the tetrapeptide precursor Bgl-FaRP1] | No currents | – |
| GDPFLRF-NH2 [Synthetic heptapeptide, product of the heptapeptide precursor Bgl-FaRP2] | No currents; also recorded: No response was elicited | – |
| FLRF-NH2 [Synthetic related peptide encoded on the Biomphalaria FMRF-NH2 precursor] | No currents; also recorded: No response was detected | EC50 (Cornu aspersum FaNaC; C. aspersum FaNaC, read-out: EC50 for FaNaC activation): 11 µM; Response of FaNaC to peptide (Planorbella FaNaC): negligible |

Reference: paper PMC10325066, “The FMRF-NH2 gated sodium channel of Biomphalaria glabrata: Localization and expression following infection by Schistosoma mansoni” (PLOS Neglected Tropical Diseases, 2023)
